Experimental data: patent US8703106B2, “Chlorine dioxide treatment for biological tissue” (priority 2009, dated 2014)

What was measured:
mixed PA/MRSA biofilm = test: Biofilm kill on ceramic disks, clean system (Example 1); type: cell-based, Pseudomonas aeruginosa and Staphylococcus aureus; details: for Log Reduction in Organism Count: MRSA + PA, total bacteria
Method: (§1) A series of experiments were conducted to estimate the dosage of chlorine dioxide needed to kill bacterial biofilms consisting of Pseudomonas acruginosa (PA), methicillin resistant Staphylococcus aureus (MRSA), or a combination of both.
(§2) Bacterial biofilms were grown for between 7 and 10 days on non-porous ceramic disks in a spinning disk biofilm reactor. The reactors were inoculated with PA, MRSA, or a mixture of MRSA and PA bacteria to produce PA, MRSA, or mixed PA/MRSA biofilms respectively.
(§3) Chlorine dioxide solutions were produced at different nominal concentrations using ASEPTROL S-Tab10 tablets, and the exact concentrations were then measured using a Hach Model 2400 UV/Vis spectrophotometer in accordance with the manufacturer's instructions. Pairs of biofilm-containing disks were immersed for different times in solutions of different chlorine dioxide concentrations, neutralized with dilute sodium thiosul fate solution, and then plated to determine the number of surviving bacteria on each disk. Two untreated disks were also exposed to neutralizing solution and plated to determine the starting bacterial counts. In all tests, the baseline bacterial counts were in the range of 10^7 to 10^7.5 colony-forming units per disk (cfu/disk). A one log reduction refers to reducing the cfu/disk by one order of magnitude, e.g., a reduction from 10^7.1 cfu/disk to 10^6.1 cfu/disk. Accordingly, a substantially complete kill is achieved in the example if the log reduction of bacteria is about 7 to 7.5.
(§4) The results are presented in terms of log reduction of the different bacterial organisms. In the case of mixed PA/MRSA biofilms, results are given as total bacteria.

MRSA biofilm = test: Biofilm kill in protein-rich (FBS) environment (Example 3); type: cell-based, Staphylococcus aureus; details: for Log Reduction in Organism Count: MRSA
Method: Chlorine dioxide efficacy against biofilm in protein-rich environment A series of experiments were conducted to determine the effect of FBS on the kill of PA. MRSA and mixture PA/MRSA biofilms. Biofilms were grown as described in Example 1, Disks were immersed in 25 ml of FBS solution at double the target FBS concentration, and to that was added 25 ml of chlorine dioxide solution at double the target chlorine dioxide concentration. After the desired contact time, disks were removed from the treatment solutions, neutralized, and plated as described above.
(§5) Dosage is given both as the nominal dose based upon the initial chlorine dioxide concentration, and the actual dosage as estimated from the initial chlorine dioxide concentration and the decay relationships described above.
(§6) Columns 3-6 are measured data; columns 7-11 are calculated data. For K2 having a positive sign (such as Samples 20-21), it was assumed that there was insufficient FBS present to cause a material loss of chlorine dioxide. Therefore, for such samples, it was assumed that chlorine dioxide was unchanged over the time of the experiment FIG. 4 is a graph of the results.

[1] = test system: methicillin resistant Staphylococcus aureus (MRSA) biofilm; test: Biofilm kill on ceramic disks, clean system (Example 1); type: cell-based; details: for Log Reduction in Organism Count: MRSA
Method: as §1, §2, §3, §4

[2] = test system: Pseudomonas aeruginosa (PA) biofilm; test: as above; type: cell-based; details: for Log Reduction in Organism Count: PA
Method: as §1, §2, §3, §4

[3] = Chlorine dioxide loss in fetal blood serum (FBS) solution; type: physicochemical
Method: A series of experiments were conducted to estimate and quantify the effect of blood serum on chlorine dioxide concentration. Solutions of chlorine dioxide and fetal blood serum (FBS) were prepared at different concentrations of chlorine dioxide and FBS, and the chlorine dioxide concentration was tracked using a Spectral Physics UV/Visible spectrophotometer with a direct insertion probe (1 mm path length).
The initial chlorine dioxide concentration was measured using a Hach Model 2400 UV/Vis spectrophotometer. A UV/Vis scan was then measured over the wavelength range of about […] using the direct insertion probe, and this was used to calculate the initial absorbance of the solution. FBS was then added, and UV/Vis scans were run periodically thereafter. The area of the chlorine dioxide absorbance peak was calculated for each scan, and the relative chlorine dioxide concentration at each time was calculated by dividing the area at each time point by the peak area of the initial scan (prior to FBS addition). Relative chlorine dioxide concentration was plotted versus time for each set of chlorine dioxide and FBS concentrations. […] The exponent K2 in the equation is an estimate of the decay rate of chlorine dioxide in the FBS solution. The weight ratio of FBS to chlorine dioxide was calculated by dividing, the mass of FBS added to the solution by the mass of chlorine dioxide in the solution.
as §5, §6

## [O][Cl+][O-] [ClO2, chlorine dioxide]
Mixed PA/MRSA biofilm; Sample 12, 10.0 min, 52 ppm ClO2, 520 ppm-min
  Log Reduction in Organism Count: 5.5 log
Mixed PA/MRSA biofilm; Sample 13, 30.0 min, 52 ppm ClO2, 1560 ppm-min
  Log Reduction in Organism Count: 7.4 log
Mixed PA/MRSA biofilm; Sample 14, 1.0 min, 181 ppm ClO2, 181 ppm-min
  Log Reduction in Organism Count: 5.1 log
Mixed PA/MRSA biofilm; Sample 15, 5.0 min, 160 ppm ClO2, 800 ppm-min
  Log Reduction in Organism Count: 7.4 log
Mixed PA/MRSA biofilm; Sample 16, 30.0 min, 160 ppm ClO2, 4800 ppm-min
  Log Reduction in Organism Count: 7.4 log
Mixed PA/MRSA biofilm; mixed PA/MRSA biofilm, clean system (Sample 12)
  dosage achieving a kill of about 5 orders of magnitude (5 log): greater than 200 ppm-min
MRSA biofilm; MRSA biofilm, with FBS
  corrected dose rate resulting in complete kill: ≥ 2000 ppm-rain
MRSA biofilm; Sample 22, FBS 131 mg/mg ClO2, 15.0 min, initial 191 ppm, nominal 2865, corrected 2236 ppm-min
  Log Reduction in Organism Count: 4.7 log
MRSA biofilm; Sample 23, FBS 131 mg/mg ClO2, 40.0 min, initial 191 ppm, nominal 7640, corrected 5559 ppm-min
  Log Reduction in Organism Count: 4.7 log
MRSA biofilm; Sample 24, FBS 104 mg/mg ClO2, 15.0 min, initial 240 ppm, nominal and corrected 3600 ppm-min
  Log Reduction in Organism Count: 4.7 log
MRSA biofilm; Sample 25, FBS 104 mg/mg ClO2, 30.0 min, initial 240 ppm, nominal and corrected 7200 ppm-min
  Log Reduction in Organism Count: 4.7 log
MRSA biofilm; Sample 26, FBS 104 mg/mg ClO2, 60.0 min, initial 240 ppm, nominal and corrected 14400 ppm-min
  Log Reduction in Organism Count: 4.7 log
[1]; MRSA biofilm, clean system (Sample 1)
  dosage achieving a kill of about 5 orders of magnitude (5 log): greater than 200 ppm-min
[1]; Sample 1, 1.0 min, 208 ppm ClO2, 208 ppm-min
  Log Reduction in Organism Count: 5.5 log
[1]; Sample 2, 5.0 min, 204 ppm ClO2, 1020 ppm-min
  Log Reduction in Organism Count: 7.1 log
[1]; Sample 3 (second line), 30.0 min, 40 ppm ClO2, 1200 ppm-min
  Log Reduction in Organism Count: 5.1 log
[1]; Sample 3, 10.0 min, 45 ppm ClO2, 450 ppm-min
  Log Reduction in Organism Count: 5.5 log
[1]; Sample 4, 30.0 min, 175 ppm ClO2, 5250 ppm-min
  Log Reduction in Organism Count: 7.1 log
[2]; PA biofilm, clean system (Sample 7)
  dosage achieving a kill of about 5 orders of magnitude (5 log): greater than 200 ppm-min
[2]; Sample 6, 0.5 min, 200 ppm ClO2, 100 ppm-min
  Log Reduction in Organism Count: 5.9 log
[2]; Sample 7, 5.0 min, 43 ppm ClO2, […]-min
  Log Reduction in Organism Count: 5.7 log
[2]; Sample 8, 5.0 min, 187 ppm ClO2, 935 ppm-min
  Log Reduction in Organism Count: 7.5 log
[2]; Sample 9, 10.0 min, 37 ppm ClO2, 370 ppm-min
  Log Reduction in Organism Count: 7.5 log
[2]; Sample 10, 50.0 min, 35 ppm ClO2, 1750 ppm-min
  Log Reduction in Organism Count: 7.5 log
[2]; Sample 11, 50.0 min, 166 ppm ClO2, 8300 ppm-min
  Log Reduction in Organism Count: 7.5 log
[3]; 104 mg FBS/mg ClO2, initial 240 ppm, 15.0 min, assumed unchanged
  Final ClO2 Concentration: 240 ppm
[3]; 104 mg FBS/mg ClO2, initial 240 ppm, 30.0 min, assumed unchanged
  Final ClO2 Concentration: 240 ppm
[3]; 104 mg FBS/mg ClO2, initial 240 ppm, 60.0 min, assumed unchanged
  Final ClO2 Concentration: 240 ppm
[3]; 104 mg FBS/mg ClO2, initial 240 ppm, calculated, positive K2 taken as no loss
  Decay rate, K2: 0.0344
[3]; 131 mg FBS/mg ClO2, initial 191 ppm, 15.0 min, calculated
  Final ClO2 Concentration: 107 ppm
[3]; 131 mg FBS/mg ClO2, initial 191 ppm, 40.0 min, calculated
  Final ClO2 Concentration: 87 ppm
[3]; 131 mg FBS/mg ClO2, initial 191 ppm, calculated from K2=-0.00927(FBS/ClO2)+1
  Decay rate, K2: −0.2134
